# Measured values: patent EP4129319A1, “PORE-FORMING ANTIMICROBIAL PEPTIDES” (priority 2021, dated 2023)
# Read-outs that look alike come from different tables or passages of the source. Ends that are not written are not given here.
# Tests used:
# Calcein leakage assay = format: biochemical; conditions: for Extent of leakage (in percentage) at increasing peptide-to-lipid ratio (mol/mol) 1:10 / Extent of leakage (in percentage) at increasing peptide-to-lipid ratio (mol/mol) 1:20 / Extent of leakage (in percentage) at increasing peptide-to-lipid ratio (mol/mol) 1:50 / Extent of leakage (in percentage) at increasing peptide-to-lipid ratio (mol/mol) 1:100: calcein leakage, POPC:POPG (1:1 mol/mol) LUVs; for Extent of leakage (in percentage) at increasing peptide-to-lipid ratio (mol/mol) 1:10: peptide-to-lipid ratio 1:10 (mol/mol); for Extent of leakage (in percentage) at increasing peptide-to-lipid ratio (mol/mol) 1:20: peptide-to-lipid ratio 1:20 (mol/mol); for Extent of leakage (in percentage) at increasing peptide-to-lipid ratio (mol/mol) 1:50: peptide-to-lipid ratio 1:50 (mol/mol); for Extent of leakage (in percentage) at increasing peptide-to-lipid ratio (mol/mol) 1:100: peptide-to-lipid ratio 1:100 (mol/mol)
# Procedure: (§1) Chemicals. […] (Prague, Czech Republic), and Caslo ApS (Kongens Lyngby, Denmark). […] The bacterial stock was stored at -80°C.
# Calcein leakage assay. Pore-forming activity of the peptides was tested by their ability to leak the self-quenching fluorescent dye calcein entrapped within POPC:POPG (1:1 mol/mol) large unilamellar vesicles (LUVs). After mixing DiD to the lipid mixture (in the ratio 1:500 mol/mol), a thin lipid film was created by evaporating of the chloroform, traces of which were removed by desiccating overnight. The lipid film was then dissolved in calcein buffer, followed by vigorous vortexing. The lipid suspension was subsequently subjected to 10 freeze-thaw cycles. To obtain uniform LUVs, the sample was passed 50 times back and forth through an extruder stacked with 100 nm pore size polycarbonate membrane filter. Afterwards, the untrapped calcein was removed on a HiTrap Desalting Column (with Sephadex G-25 Superfine resin) by washing with PBS buffer. The concentration of the lipid suspension was then adjusted to 0.02 mM. The concentration of the peptide solution was 0.1 mM. The inventors monitored the peptide-induced release of calcein from LUVs by the increase in fluorescence intensity after adding increasing amounts of peptides to the LUVs under constant stirring at 25 °C. The investigated range of peptide/lipid molecular ratio was from 1:100 to 1:10. The excitation and emission wavelengths were set to 495 nm and 520 nm, respectively. Maximum fluorescence intensity was obtained by disrupting all the vesicles in the end by adding 10% Triton X-100. Experiments were performed in triplicates with independently prepared lipid vesicles.
# [1] = system: human red blood cells (HRBCs); format: cell-based
# Procedure: as §1
# Hemolysis assay. Hemolytic toxicity of the peptides was evaluated from their ability to lyse the fresh human red blood cells (HRBCs) collected from the University Hospital (Brno, Czech Republic). To obtain the erythrocyte pellets, the blood samples were centrifuged twice at 700×g and subsequently, once at 1000×g, each for 8 min. at 4 °C, which was followed by thorough washing with PBS. Resuspension of the pellets was done in PBS to obtain 0.5% (vol/vol) RBC suspension. In a well plate with 96 V-shaped bottom wells, the peptides were added in a dilution series from 0.1 to 50 µM concentration. Subsequently, HRBC suspension was added in each well. Negative control wells contained only PBS and HRBC suspension without any peptide (i.e., 0% lysis), and positive control wells included 5 µM melittin in the HRBC suspension. After incubation for 1 h at 37 °C, the well plates were centrifuged at 1000×g for 10 min. at 4 °C. Subsequently, the supernatant was collected in a flat-bottomed well plate and the optical density of the released hemoglobin was measured for each well at 415 nm wavelength. The calculated absorbances from the wells were then normalized against the averaged absorbances of the positive and the negative control wells. EC50 value was calculated from the normalized absorbances indicating 50% hemolysis of HRBCs. Experiments were performed in triplicates with three independent blood samples.
# [2] = system: human dermal fibroblast (HDF) cell lines; experiment: Neutral red uptake assay (cytotoxicity); format: cell-based
# Procedure: Neutral red uptake assay. To evaluate the cytotoxicity of the peptides against human dermal fibroblast (HDF) cell lines, the inventors purchased the neutral red uptake assay from Essence Line (Praha, Czech Republic). The initial cell culture was sub-cultured in supplemented Dulbecco's Modified Eagle Medium (DMEM) and diluted to a cell density of 1 × 10^5 cells/mL. The diluted culture was then seeded into the wells (1 × 10^4
# [3] = system: Gram-negative Escherichia coli TOP10 strain; format: cell-based; conditions: for Antibacterial activity (MIC in µM) E. coli TOP10: broth microdilution assay; for MIC against E. coli: 24 h at 37 °C, dilution series 50 to 0.1 µM
# Procedure: as §1
# (§2) Broth microdilution assay. Antimicrobial activity of the peptides was investigated against Gram-negative Escherichia coli TOP10 strain and Gram-positive Staphylococcus carnosus CCM 4838T using broth microdilution assay, based on which the inventors determined the bacterial minimum inhibition concentration (MIC). After cross streaking with bacteria, the petri dishes (with MHA) were incubated for 24 h at 37 °C. Overnight grown cultures were then sub-cultured for 4-6 h at 37 °C in test tubes containing MHB. The sub-cultured solutions were subsequently diluted to a standard concentration of 10^6 colony forming units (CFU) per mL. Cell counts were determined by measuring the optical density at 600 nm. In a flat-bottomed 96 well plate, the inventors prepared a dilution series for the peptides and for the reference antibiotic ampicillin from 50 to 0.1 µM concentration, which was then inoculated with bacteria and incubated for 24 h at 37 °C. Growth control wells were free from peptides or ampicillin to show the viability of the bacteria, and sterility control wells were free from bacterial inoculation to verify the sterility of the medium. The bacterial growth was visually evaluated based on the turbidity. MIC was determined as the lowest concentrated well where no visible bacterial growth was observed. To test the bacteriostatic or bacteriocidal activity of the peptides, 50 µl solution from the highest concentrated well (i.e., 50 µM) was transferred to a test tube containing 4 mL sterile MHB and incubated for 24 h at 37 °C under constant stirring. Streaking of the same solution was done on MHA containing petri dishes and incubated for 24 h at 37 °C to confirm the morphology of the colonies grown. Experiments were performed in triplicates.
# [4] = system: Gram-positive Staphylococcus carnosus CCM 4838T; format: cell-based
# Procedure: as §1, §2
# [5] = hemolysis assay, HRBCs, read-out: Toxicity (EC50 in µM) HRBCs
Substance,Extent of leakage (in percentage) at increasing peptide-to-lipid ratio (mol/mol) 1:20 (Calcein leakage assay),Extent of leakage (in percentage) at increasing peptide-to-lipid ratio (mol/mol) 1:50 (Calcein leakage assay),Extent of leakage (in percentage) at increasing peptide-to-lipid ratio (mol/mol) 1:100 (Calcein leakage assay),EC50 [1],Antibacterial activity (MIC in µM) E. coli TOP10 [3],Antibacterial activity (MIC in µM) S. carnosus ([4]; CCM 4838),"EC50 [1, 5]",also measured
H-KKKKVKKILKKLIQLIDQLDKDLQDIKKKK-NH2 [KD16+9-NH2],93.1 ± 0.7 percentage,83.0 ± 1.5 percentage,58.8 ± 4.8 percentage,> 50 µM,–,–,–,"calcein / vesicle leakage, pore-forming ability (in words) (Calcein leakage assay; POPC:POPG (1:1) LUVs): resulted in vesicle leakage; Extent of leakage (in percentage) at increasing peptide-to-lipid ratio (mol/mol) 1:10 (Calcein leakage assay): 99.1 ± 2.5 percentage"
KKKKLKKILKKLFQFINQLDNQLQDIKQNK-NH2 [KDFA2i+9-NH2],–,–,–,–,0.8 µM,0.8 µM,> 50 µM,EC50 [2]: 97 µM
KKKKLRRILRRLFQFINQLDNQLQDIKQNK-NH2 [RDFA2i+9-NH2-Kter],–,100.7 ± 1.0 percentage,76.0 ± 3.3 percentage,–,0.2 µM,0.4 µM,49 µM,antimicrobial activity against S. carnosus (in words) [4]: more effective against S. carnosus
KKKKLKKILKKLWQWINQLDNQLQDIKQNK-NH2 [KDWA2i+9-NH2],–,–,–,–,0.4 µM,0.8 µM,> 50 µM,–
KKKKKLKKILKKLFQFINQLDNQLQDIKKKKK [KDFA2i+12],–,–,–,–,0.4 µM,0.4 µM,> 50 µM,–
KKKKLKKILKKLFQFIDQLINDLQNIKKKK-NH2 [KDFA5+11-NH2],101.6 ± 1.4 percentage,78.0 ± 4.3 percentage,38.6 ± 3.5 percentage,–,1.6 µM,1.6 µM,> 50 µM,–
H-HHHHLKKILKKLFQFINQLDNQLQDIHHHH-OH [KDFA2i+2-Hter],–,–,102.5 ± 1.2 percentage,–,–,> 50 µM,–,antimicrobial activity against E. coli (in words) [3]: did not show antibacterial activity; antimicrobial activity against S. carnosus (in words) [4]: did not show antibacterial activity; extent of calcein leakage at peptide-to-lipid (P:L) ratio 1:100 (Calcein leakage assay; POPC:POPG (1:1) LUVs): 100%
NQKKLRRILRRLFQFIDQLDNDLQDIKKQN [RDFC16Kter],102.2 ± 0.5 percentage,85.3 ± 4.3 percentage,64.5 ± 6.1 percentage,> 50 µM,50 µM,–,–,MIC against E. coli [3]: 50 µM
KKKKLKKILKKLFQFINQLENQLQEIKQNK-NH2 [KEFA2i+9-NH2],–,–,–,–,0.8 µM,0.8 µM,> 50 µM,–
NQKKLQNILNKLFKFIDDLINQLQNIKKQN [KDFA9],102.0 ± 1.4 percentage,92.0 ± 0.3 percentage,62.6 ± 5.2 percentage,> 50 µM,> 50 µM,> 50 µM,–,"calcein / vesicle leakage, pore-forming ability (in words) (Calcein leakage assay; POPC:POPG (1:1) LUVs): retained"
NQKKLKKILNQLFQFINQLDNQLQDIKKQN [KDFA2],–,100.2 ± 0.2 percentage,82.8 ± 1.5 percentage,> 50 µM,50 µM,–,–,MIC against E. coli [3]: 50 µM
NQRRLRRILNQLFQFINQLDNQLQDIRRQN [RDFA2],102.9 ± 0.9 percentage,97.4 ± 4.5 percentage,80.2 ± 8.2 percentage,> 50 µM,> 50 µM,–,–,–
KKKKLKKILKKLFQFINQLIDDLDDIKKKK-NH2 [KDFC21+9-NH2],99.4 ± 1.6 percentage,78.2 ± 1.2 percentage,–,> 50 µM,3.1 µM,3.1 µM,–,Extent of leakage (in percentage) at increasing peptide-to-lipid ratio (mol/mol) 1:10 (Calcein leakage assay): 102.2 ± 1.1 percentage
KKKKLKKILKKLFQFINQLDNQLQDIKQNK [KDFA2i+8],–,–,–,–,0.2 µM,0.4 µM,> 50 µM,–
KKKKLKKFFKKLIQLINQLFDDLDDFKKKK-NH2 [KDFD24+9-NH2],81.5 ± 6.8 percentage,42.6 ± 11.5 percentage,13.0 ± 5.2 percentage,> 50 µM,12.5 µM,–,–,"Antibacterial activity (MIC in µM) S. carnosus ([4]; broth microdilution assay, S. carnosus): 12.5 µM; Extent of leakage (in percentage) at increasing peptide-to-lipid ratio (mol/mol) 1:10 (Calcein leakage assay): 98.7 ± 3.2 percentage"
RRRRLKKILKKLFQFINQLDNQLQDIRQNR-NH2 [KDFA2i+9-NH2-Rter],103.3 ± 1.2 percentage,98.8 ± 1.2 percentage,65.5 ± 4.2 percentage,–,0.4 µM,0.8 µM,6.9 µM,–
KKKKLKKILKKLFQFINQLDNQLQDFKQNK [KDFA2i+8(I26F)],–,–,–,–,0.4 µM,0.8 µM,> 50 µM,–
KKKKLDDILDDLFQFIKQLKNKLQKIKKKK-NH2 [DKFC16+9-NH2],103.3 ± 0.9 percentage,89.5 ± 3.3 percentage,50.1 ± 4.1 percentage,> 50 µM,> 50 µM,1.6 µM,–,"antimicrobial activity against E. coli (in words) [3]: did not show activity against E. coli; antimicrobial activity against S. carnosus (in words) [4]: found active against S. carnosus; calcein / vesicle leakage, pore-forming ability (in words) (Calcein leakage assay; POPC:POPG (1:1) LUVs): resulted in vesicle leakage"
